Measurements from US4748161A, “Triterpenyl esters of organic acids and hypolipidemic agents composed of them” (Amano Pharmaceutical Co., Ltd., priority 1984, dated 1988).

Test system: serum lipids and serum lipid hydroperoxide
Assay: Pharmacological test method A for anti-hyperlipidemic activity (serum lipids, 2 weeks feeding)
Type: in vivo, male Wistar strain rats
Details: for AI [(TC - HDL-C)/(HDL-C)] / HDL-C in serum / LPO in serum / PL in serum / TC in serum / TG in serum: 1% in hyperlipidemic diet, 2 weeks; for AI % of diff. / AI Diff. / HDL-C % of diff. / HDL-C Diff. / LPO % of diff. / LPO Diff. / PL % of diff. / PL Diff. / TC % of diff. / TC Diff. / TG % of diff. / TG Diff.: versus control group
Method: Male Wistar strain rats (100±lg, each 10 rats were formed into a group) were used as test animals. Diet for the control group was prepared by thorough mixing of 20% casein, 62.5% glucose, 10% hydrogenated coconut oil, 2% agar powder, 4% vitamin-containing salt mixture, 1% cholesterol, and 0.5% cholic acid (this composition is described by Fukushima et al, in "Yakugaku Zassi", 89, No. 6, pp. 857-862 (1962)). Diet for the test groups was prepared by good mixing of 1% each of cycloartenol, 24-methylenecycloartanol, and cyclobranol with the control group's diet. Each rat was kept in a cage at a constant temperature of 23±1° C. and a constant R.H. of 55±5% for 2 weeks, during which 10 g/day of the prescribed was given. Finally the rats were fasted from food except water for 16 hours (from 4 p.m. of the 14th test day to 8 a.m. of the 15th test day), and under anesthesia with pentbarbital sodium (tradename: Nembutal), blood was taken from each rat through the descending abdominal arota. Then, TC, HDL-C, TG, PL, and LPO in the serum were measured in the manner that will be described below.
A TC kit-K (supplied by Nippon Shoji Kaisha, Ltd.) was used. The principle of this determination is as follows: The ester of cholesterol in the serum is hydrolyzed with cholesterol-ester hydrolase into free cholesterol and fatty acids. All the free cholesterol is oxidized with cholesterol oxydase to form Δ^4 -cholestenone and hydrogen peroxide. Phenol and 4-aminoantipyrin are oxidatively condensed together by the formed hydrogen peroxide and peroxydase. The produced red quinone coloring matter is measured by colorimetry for absorbance at 500 nm using a spectrophotometer, thereby determining the TC:
The color-developing liquid (3.0 ml) is well mixed with the sample serum (0.02 ml). The mixture once heated at 37° C. for 15 minutes, is measured for absorbance at 500 nm with a spectrophotometer. The found absorbance is denoted by EA. On the other hand, the color-developing liquid (3.0 ml) is well mixed with the standard solution. The mixture is treated and measured for absorbance at 500 nm in the same manner as the above. This found absorbance is denoted by ES. Both EA and ES are determined with reference to the value of the blank test conducted using the color-developing liquid (3.0 ml) alone. [formula]
An HDL-C kit-N (supplied by Nippon Shoji Kaisha, Ltd.) was used. […] (VLDL) and lo density lipoprotein (LDL) in the serum is precipitated by the action of heparin. The precipitate is separated by centrifugation. High density lipoprotein (HDL) is dissolved in the separated supernatant. Esters of cholesterol in this fraction is hydrolyzed with cholesterol-ester hydrolase into free cholesterol and fatty acids. All the free cholesterol is oxidized with cholesterol oxydase to form Δ^4 -cholestenone and hydrogen peroxide. Phenol and 4-aminoantipyrine are oxidatively condensed together by the formed hydrogen peroxide and peroxydase. The produced red quinone coloring matter is measured by colorimetry for absorbance at 500 nm using a spectrophotometer, thereby determining the HDL-C.
A PL kit-K (supplied by Nippon Shoji Kaisha, Ltd.) was used for the determination. Lecithin, sphingomyelin, and lysolecithin are decomposed by phospholipase D into choline and phosphatidic acid, N-acylsphingosyl phosphate, or lysophosphatidic acid, respectively. The resulting choline is quantitatively decomposed by choline oxydase into hydrogen peroxide and betaine. With this hydrogen peroxide, and aid of peroxydase, phenol and 4-aminoantipyrin are condensed into red quinone pigment, then the absorbance at 500 nm of which is measured with a spectrophotometer, thereby determining the PL.
Serum TG level was determined by means of a triglyceride test kit (supplied by Wako Pure Chemical Industries, Ltd.) in which acetylacetone is used for a reagent, in the following manner: Serum proteins are precipitated, when isopropyl alcohol and the sample serum are mixed. […]

Row | SMILES | AI [(TC - HDL-C)/(HDL-C)] | HDL-C in serum | LPO in serum | PL in serum | TC in serum | TG in serum | AI % of diff. | AI Diff. | HDL-C % of diff. | HDL-C Diff. | LPO % of diff. | LPO Diff. | PL % of diff. | PL Diff. | TC % of diff. | TC Diff. | TG % of diff. | TG Diff.
1 | COc1cc(C(=O)OC2CCC34CC35CCC3(C)C(C(C)CCC=C(C)C)CCC3(C)C5CCC4C2(C)C)ccc1O (stereo not drawn) [Example 29, cycloartenyl-4-hydroxy-3-methoxybenzoate] | 0.611 | 101.0 mg/dL | 1.95 nmol/mL | 160.6 mg/dL | 162.7 mg/dL | 32.7 mg/dL | -39.0% | -0.391 | +5.0% | +4.8 mg/dl | -16.3% | -0.38 nmol/mL | -11.2% | -20.3 mg/dL | -15.5% | -29.9 mg/dL | -1.5% | -0.5 mg/dL
2 | CCOc1cc(C(=O)OC2CCC34CC35CCC3(C)C(C(C)CCC=C(C)C)CCC3(C)C5CCC4C2(C)C)ccc1O (stereo not drawn) [Example 60, cycloartenyl-3-ethoxy-4-hydroxybenzoate] | 0.609 | 102.5 mg/dL | 1.98 nmol/mL | 161.4 mg/dL | 164.9 mg/dL | 32.8 mg/dL | -39.2% | -0.393 | +6.5% | +6.3 mg/dl | -15.0% | -0.35 nmol/mL | -10.8% | -19.5 mg/dL | 14.4% | -27.7 mg/dL | -1.2% | -0.4 mg/dL
3 | C=C(CCC(C)C1CCC2(C)C3CCC4C(C)(C)C(OC(=O)CCCCCCC/C=C\C/C=C\CCCCC)CCC45CC35CCC12C)C(C)C (stereo not drawn) [Example 93, 24-Methylenecycloartanyl ester of linoleic acid] | 0.761 | 91.5 mg/dL | 1.70 nmol/mL | 150.2 mg/dL | 161.1 mg/dL | 35.1 mg/dL | -37.7% | -0.461 | +5.8% | +5.0 mg/dl | -24.3% | -0.54 nmol/mL | -13.0% | -22.4 mg/dL | -16.2% | -31.1 mg/dL | -3.3% | -1.2 mg/dL
4 | CC(C)=CCCC(C)C1CCC2(C)C3CCC4C(C)(C)C(OC(=O)c5ccc(N)cc5)CCC45CC35CCC12C (stereo not drawn) [Example 19, cycloartenyl-p-aminobenzoate] | 0.699 | 91.9 mg/dL | 1.63 nmol/mL | 153.6 mg/dL | 156.1 mg/dL | 31.6 mg/dL | -42.8% | -0.523 | +6.2% | +5.4 mg/dl | -27.2% | -0.61 nmol/mL | -11.0% | -19.0 mg/dL | -18.8% | -36.1 mg/dL | -12.9% | -4.7 mg/dL
5 | C=C(CCC(C)C1CCC2(C)C3CCC4C(C)(C)C(OC(=O)c5cccc(N)c5)CCC45CC35CCC12C)C(C)C (stereo not drawn) [Example 100, 24-Methylenecyloartanyl ester of m-aminobenzoic acid] | 0.766 | 90.1 mg/dL | 1.68 nmol/mL | 155.6 mg/dL | 159.1 mg/dL | 34.3 mg/dL | -37.3% | -0.456 | +4.2% | +3.6 mg/dl | -25.2% | -0.56 nmol/mL | -10.2% | -17.6 mg/dL | -17.2% | -33.1 mg/dL | -5.5% | -2.0 mg/dL
6 | C=C(CCC(C)C1CCC2(C)C3CCC4C(C)(C)C(OC(=O)C=Cc5ccc(OC(C)=O)c(OCC)c5)CCC45CC35CCC12C)C(C)C (stereo not drawn) [Example 72, 24-methylenecycloartanyl-4-acetoxy-3-ethoxycinnamate] | 1.091 | 89.2 mg/dL | 2.07 nmol/mL | 160.3 mg/dL | 186.5 mg/dL | 41.8 mg/dL | -35.2% | -0.593 | +10.2% | +8.3 mg/dl | -10.4% | -0.24 nmol/mL | -10.8% | -19.4 mg/dL | -14.1% | -30.6 mg/dL | -2.4% | -1.0 mg/dL
